The source of these data is the supplement of paper PMC12613149.

Data set [1] can be described thus: collision cross section (TIMS, N2 drift gas) of the primary ion; higher = larger gas-phase ion size. The procedure: (§1)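 Reference mixture of environmental contaminants analysed by RP-LC (BEH C18, 50 °C; ESI+ with water/MeOH plus formic acid and ammonium formate, ESI- with ammonium bicarbonate) coupled to a timsTOF Pro 2 with trapped ion mobility in nitrogen (ramp/accumulation 100 ms). CCS was calibrated with Agilent tune mix (CCS compendium) and averaged over five injections at 0.5-500 ng/mL. The table reports the lowest-CCS (putative monomer) peak; retention times are on the same gradient.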

Data set [2] can be described thus: reversed-phase LC retention time (C18, 15 min MeOH gradient); higher = more hydrophobic / later elution. As to the method: as §1
The mark [3] stands for this setting: ionization mode: ESI+, ion species: [M+H]+.
Setting [4] is: ionization mode: ESI-, ion species: [M-H]-.
Setting [5] is: ionization mode: ESI+, ion species: [M]+.

Consider `CC(C)(C)c1cc(CCC(=O)NCCCCCCNC(=O)CCc2cc(C(C)(C)C)c(O)c(C(C)(C)C)c2)cc(C(C)(C)C)c1O`, for which the values for the collision cross section in data set [1] (setting [3]) and in data set [1] (setting [4]) were 263.68 Å² and 254.68 Å², respectively. Also, the “reversed-phase LC retention time” value in data set [2] (setting [3]) came to 17.8 min; in data set [2] (setting [4]) it was 18.3 min.

On to `Cc1cccc(C)c1NC(=O)CS(=O)(=O)O`, for which the collision cross section in data set [1] (setting [3]) stood at 152.57 Å²; in data set [1] (setting [4]), 149.99 Å². Besides, the “reversed-phase LC retention time” value in data set [2] (setting [3]) was found to be 7.36 min; in data set [2] (setting [4]), 7.04 min.

In turn, `CCc1cccc(C)c1N(C(=O)C(=O)O)C(C)C(=O)O` (stereo unspecified) gave a collision cross section in data set [1] (setting [4]) of 159.41 Å². Moreover, the “reversed-phase LC retention time” value in data set [2] (setting [4]) is 7.53 min.

In data set [1] (setting [4]), `CCc1cccc(C)c1N(C(=O)CS(=O)(=O)O)[C@@H](C)C(=O)O` gave a collision cross section of 167.47 Å². Further, the “reversed-phase LC retention time” value in data set [2] (setting [4]) is 8.5 min.

As to `CCc1cccc(C)c1NC(=O)CS(=O)(=O)O`, the collision cross section in data set [1] (setting [3]) is recorded as 157.12 Å²; in data set [1] (setting [4]), 155.17 Å². Also, the “reversed-phase LC retention time” value in data set [2] (setting [3]) worked out at 8.83 min; in data set [2] (setting [4]), 8.58 min.

In turn, `CCCCC(CC)COC(=O)c1ccc(N(C)C)cc1` (stereo unspecified) displayed a collision cross section in data set [1] (setting [3]) of 185.61 Å². The “reversed-phase LC retention time” value in data set [2] (setting [3]) turned out to be 17.9 min.

Turning to `CCCCC(CC)COC(=O)c1ccc(Nc2nc(Nc3ccc(C(=O)OCC(CC)CCCC)cc3)nc(Nc3ccc(C(=O)OCC(CC)CCCC)cc3)n2)cc1` (stereo unspecified), in data set [1] (setting [3]), the collision cross section came out at 282.62 Å². Besides, the “reversed-phase LC retention time” value in data set [2] (setting [3]) was 19.5 min.

Consider `CCCCCCCCSc1nc(Nc2cc(C(C)(C)C)c(O)c(C(C)(C)C)c2)nc(SCCCCCCCC)n1`, for which the collision cross section in data set [1] (setting [3]) is on record as 263.3 Å². In addition, in data set [2] (setting [3]), the “reversed-phase LC retention time” value is 21 min.

In the case of `CCCN(CCOc1c(Cl)cc(Cl)cc1Cl)C(=O)NC=O`, the collision cross section in data set [1] (setting [3]) worked out at 174.76 Å². Also, in data set [2] (setting [3]), the “reversed-phase LC retention time” value is 15.7 min.

`CCCNCCOc1c(Cl)cc(Cl)cc1Cl`: the collision cross section in data set [1] (setting [3]) is given as 162.11 Å². Moreover, the “reversed-phase LC retention time” value in data set [2] (setting [3]) is 12.1 min.

For `CN(C)c1nc(=O)n(C2CCCCC2)c(=O)n1C`, the collision cross section in data set [1] (setting [3]) is given as 163.21 Å². In data set [2] (setting [3]), the “reversed-phase LC retention time” value worked out at 11.7 min.

As to `CNC(=O)c1cc(Oc2ccc(NC(=O)Nc3ccc(Cl)c(C(F)(F)F)c3)cc2)ccn1`, the results for the collision cross section in data set [1] (setting [3]) and in data set [1] (setting [4]) were 214.28 Å² and 218.21 Å², respectively. For the same compound, the entries for the “reversed-phase LC retention time” value in data set [2] (setting [3]) and in data set [2] (setting [4]) were 15.8 min and 16.2 min, respectively.

Take `COCC(=O)N(c1c(C)cccc1C(=O)O)C(C)C(=O)O` (stereo unspecified): the collision cross section in data set [1] (setting [4]) is given as 159.84 Å². The “reversed-phase LC retention time” value in data set [2] (setting [4]) stood at 5.43 min.

`CO/N=C(/C(=O)O)c1ccccc1CO/N=C(\C(=O)O)c1cccc(C(F)(F)F)c1` came in with a collision cross section in data set [1] (setting [3]) of 195.58 Å². Besides, the “reversed-phase LC retention time” value in data set [2] (setting [3]) turned out to be 13.6 min.

`CO/N=C(/C(=O)O)c1ccccc1CO/N=C(\C)c1cccc(C(F)(F)F)c1` showed a collision cross section in data set [1] (setting [3]) of 186.57 Å². Moreover, the “reversed-phase LC retention time” value in data set [2] (setting [3]) turned out to be 15.5 min.

For `CO/N=C(/C(=O)O)c1ccccc1CO/N=C(/C(=O)O)c1cccc(C(F)(F)F)c1`, the collision cross section in data set [1] (setting [3]) is 194.45 Å². Besides, in data set [2] (setting [3]), the “reversed-phase LC retention time” value came out at 13.1 min.

For the compound `NC(=O)c1c(Cl)c(Cl)cc(C(=O)O)c1Cl`, the collision cross section in data set [1] (setting [4]) came to 155.56 Å². For the same compound, the “reversed-phase LC retention time” value in data set [2] (setting [4]) was found to be 4.88 min.

With `O=C(O)C1C(C(=O)O)C2(Cl)C(Cl)=C(Cl)C1(Cl)C2(Cl)Cl` (stereo unspecified), the collision cross section in data set [1] (setting [4]) was found to be 159.01 Å². Also, the “reversed-phase LC retention time” value in data set [2] (setting [4]) is 10.3 min.

With `CC(c1ccc(O)cc1)(c1ccc(O)cc1)c1ccc(O)cc1` [1,1,1-Tris(4-hydroxyphenyl)ethane], the collision cross section in data set [1] (setting [4]) is recorded as 183.23 Å². Also, the “reversed-phase LC retention time” value in data set [2] (setting [4]) is 12.4 min.

On to `O=c1[nH]sc2ccccc12` [1,2-Benzisothiazolinone], for which the collision cross section in data set [1] (setting [3]) turned out to be 125.68 Å²; in data set [1] (setting [4]) it was 122.13 Å². Also, the “reversed-phase LC retention time” value in data set [2] (setting [3]) came to 8.77 min; in data set [2] (setting [4]), 10.6 min.

As for `Cc1ccccc1N=C(N)Nc1ccccc1C` [1,3-Di-o-tolylguanidine], the results for the collision cross section in data set [1] (setting [3]) and in data set [1] (setting [4]) were 157.64 Å² and 158.32 Å², respectively. Further, the “reversed-phase LC retention time” value in data set [2] (setting [3]) turned out to be 9.72 min; in data set [2] (setting [4]), 11 min.

In data set [1] (setting [3]), `CN1CCN(C)C1=O` [1,3-Dimethyl-2-imidazolidinone] returned a collision cross section of 116.95 Å². For the same compound, the “reversed-phase LC retention time” value in data set [2] (setting [3]) turned out to be 6.07 min.

`N=C(Nc1ccccc1)Nc1ccccc1` [1,3-Diphenylguanidine] yielded a collision cross section in data set [1] (setting [3]) of 150.19 Å². Also, the “reversed-phase LC retention time” value in data set [2] (setting [3]) came to 8.61 min.

Compound `O=C(Nc1ccccc1)Nc1ccccc1` [1,3-Diphenylurea] displayed a collision cross section in data set [1] (setting [3]) of 148.26 Å². For the same compound, the “reversed-phase LC retention time” value in data set [2] (setting [3]) amounted to 12.4 min.

In the case of `Nc1ccc2nc3c(N)cccc3nc2c1` [1,7-Diaminophenazine], the collision cross section in data set [1] (setting [3]) is on record as 143.6 Å². Moreover, the “reversed-phase LC retention time” value in data set [2] (setting [3]) is 8.4 min.

Consider `CN(C)C(=O)Nc1ccc(Cl)c(Cl)c1` [1-(3,4-Dichlorophenyl)-3,3-dimethylurea], for which the collision cross section turned out to be 149.81 Å² in data set [1] (setting [3]) and 146.03 Å² in data set [1] (setting [4]). Also, the “reversed-phase LC retention time” value worked out at 13 min in data set [2] (setting [3]) and 13.2 min in data set [2] (setting [4]).

Compound `Cn1cnc2c1c(=O)n(CCCC(=O)O)c(=O)n2C` [1-(3-carboxypropyl)-3,7-dimethylxanthine] returned a collision cross section in data set [1] (setting [3]) of 154.67 Å². Also, the “reversed-phase LC retention time” value in data set [2] (setting [3]) stood at 8.35 min.

The compound `O=C(Nc1ccccc1)NC1CCCCC1` [1-Cyclohexyl-3-phenylurea] gave a collision cross section in data set [1] (setting [3]) of 154.52 Å². In addition, in data set [2] (setting [3]), the “reversed-phase LC retention time” value was found to be 13.2 min.

`CCCCCCCCCCCCS(=O)(=O)O` [1-Dodecanesulfonic acid] displayed a collision cross section in data set [1] (setting [4]) of 165.42 Å². In data set [2] (setting [4]), the “reversed-phase LC retention time” value is 16.1 min.

As to `CCN1CCCC1=O` [1-Ethyl-2-pyrrolidinone], the collision cross section in data set [1] (setting [3]) came out at 120.11 Å². Further, the “reversed-phase LC retention time” value in data set [2] (setting [3]) is 6.97 min.

Consider `CC[n+]1ccn(C)c1` [1-Ethyl-3-methyl-imidazolium], for which, in data set [1] (setting [5]), the collision cross section turned out to be 115.07 Å². In addition, in data set [2] (setting [5]), the “reversed-phase LC retention time” value stood at 0.99 min.

Take `CCCCCCS(=O)(=O)O` [1-Hexanesulfonic acid]: the collision cross section in data set [1] (setting [4]) is 137.49 Å². Also, the “reversed-phase LC retention time” value in data set [2] (setting [4]) stood at 9.04 min.

In the case of `Oc1cccc2ccccc12` [1-Naphthol], the collision cross section in data set [1] (setting [4]) worked out at 124.62 Å². The “reversed-phase LC retention time” value in data set [2] (setting [4]) was 14.3 min.

In data set [1] (setting [3]), `CCCCCCCCCCCCCCCCCCN` [1-Octadecylamine] showed a collision cross section of 184.09 Å². In addition, the “reversed-phase LC retention time” value in data set [2] (setting [3]) stood at 18.4 min.

`c1ccc2sc(N3CCOCC3)nc2c1` [2(4-morpholinyl)benzothiazole] returned a collision cross section in data set [1] (setting [3]) of 145.3 Å². For the same compound, in data set [2] (setting [3]), the “reversed-phase LC retention time” value is 12.6 min.

Compound `O=C(c1ccc(O)cc1O)c1ccc(O)cc1O` [2,2',4,4'-Tetrahydroxybenzophenone] had a collision cross section in data set [1] (setting [4]) of 151.01 Å². For the same compound, the “reversed-phase LC retention time” value in data set [2] (setting [4]) came to 8.54 min.

In data set [1] (setting [4]), `Oc1ccccc1-c1ccccc1O` [2,2'-Dihydroxybiphenyl] returned a collision cross section of 143.93 Å². In addition, the “reversed-phase LC retention time” value in data set [2] (setting [4]) stood at 15.6 min.

In data set [1] (setting [3]), `O=C(Nc1ccccc1)c1ccccc1SSc1ccccc1C(=O)Nc1ccccc1` [2,2'-Dithiobisbenzanilide] gave a collision cross section of 195.49 Å². Besides, the “reversed-phase LC retention time” value in data set [2] (setting [3]) amounted to 16.2 min.

In the case of `N[C@@H](Cc1cc(I)c(Oc2ccc(O)c(I)c2)c(I)c1)C(=O)O` [3,3',5-Triiodo-L-thyronine], the collision cross section in data set [1] (setting [3]) came out at 209.12 Å²; in data set [1] (setting [4]), 199.54 Å².

Regarding `CCC(=C(c1ccc(O)cc1)c1ccc(OCCN(C)C)cc1)c1ccccc1` [4-Hydroxytamoxifen], the results for the collision cross section in data set [1] (setting [3]) and in data set [1] (setting [4]) were 202.55 Å² and 214.38 Å², respectively.

In data set [1] (setting [4]), `CC(C)(C)c1ccc(O)cc1` [4-tert-Butylphenol] came in with a collision cross section of 137.69 Å².

The compound `CC(=O)[C@H]1CC[C@H]2[C@@H]3CCC4=CC(=O)CC[C@]4(C)[C@H]3CC[C@]12C` [Progesterone] returned a collision cross section in data set [1] (setting [3]) of 180.93 Å².
